Laboratory results taken from patent US8067603B2 (priority 2003, dated 2011).
“And” between values parts separate entries of the source, which are not always exact repeats. Equal entries are not always repeated.

Legend:
Male Wistar rats = conditions: rat, in vivo
rats = conditions: single i.v. dose 10 minutes before agonist: J-113397 1 mg/kg, naloxone 2 mg/kg

Row | Compound | effect on food intake versus the vehicle treated group (Male Wistar rats; ip) | increase in food intake: antagonism by the opiate receptor antagonist naloxone (Male Wistar rats; ip) | Mean ± S.E.M. food intake 120 min after ligand administration (Male Wistar rats) | effect on the nociceptin-induced decrease in blood pressure (rats)
1 | CN1CC[C@]23c4c5ccc(O)c4O[C@H]2[C@@H](O)C=C[C@H]3[C@H]1C5 [Morphine, morphine] | dose-dependent increase in food-intake | antagonized | – | –
2 | C=CCN1CC[C@]23c4c5ccc(O)c4O[C@H]2C(=O)CC[C@@]3(O)[C@H]1C5 [naloxone] | no effect on food intake | – | 0.09 ± 0.09 g and 0.05 ± 0.001 g | without effect
